Data from patent US5977063A, “Alkylated hexapeptides” (Eli Lilly and Company, priority 1998, dated 1999).

Tests used:
Format in all cases: cell-based
[1] = system: Staphylococcus haemolyticus 415; test: MIC, standard broth micro-dilution assay, SH 415; set-up: unit not given here
Description: (§1) The antibacterial efficacy of the present compounds is illustrated by Table II. The minimal inhibitory concentrations (MICs) were determined using a standard broth micro-dilution assay.

[2] = system: Enterococcus faecium and faecalis (RESISTANT); conditions: geometric mean of 4-6 isolates
Description: as §1

[3] = system: Staphylococcus aureus 489; test: MIC, standard broth micro-dilution assay, SA 489; set-up: unit not given here
Description: as §1

[4] = system: Staphylococcus epidermidis 270; test: MIC, standard broth micro-dilution assay, SE 270; set-up: unit not given here
Description: as §1

[5] = system: Staphylococcus haemolyticus 105; test: MIC, standard broth micro-dilution assay, SH 105; set-up: unit not given here
Description: as §1

[6] = system: Streptococcus pneumoniae P1; test: MIC, standard broth micro-dilution assay, SPN P1; set-up: unit not given here
Description: as §1

[7] = system: Streptococcus pyogenes C203; test: MIC, standard broth micro-dilution assay, SPY C203; set-up: unit not given here
Description: as §1

[8] = system: Enterococcus faecium and faecalis (SENSITIVE); test: MIC, standard broth micro-dilution assay, SENSITIVE enterococci; set-up: unit not given here; conditions: geometric mean of 4-6 isolates
Description: as §1

[9] = system: Staphylococcus aureus 446; test: MIC, standard broth micro-dilution assay, SA 446; set-up: unit not given here
Description: as §1

[10] = system: Staphylococcus aureus 447; test: MIC, standard broth micro-dilution assay, SA 447; set-up: unit not given here
Description: as §1

SMILES	Minimal Inhibitory Concentration (MIC) SH 415 [1]	Minimal Inhibitory Concentration (MIC) RESISTANT [2]	Minimal Inhibitory Concentration (MIC) SA 489 [3]	Minimal Inhibitory Concentration (MIC) SE 270 [4]	Minimal Inhibitory Concentration (MIC) SH 105 [5]	Minimal Inhibitory Concentration (MIC) SPN P1 [6]	Minimal Inhibitory Concentration (MIC) SPY C203 [7]	Minimal Inhibitory Concentration (MIC) SENSITIVE [8]	Minimal Inhibitory Concentration (MIC) SA 446 [9]	Minimal Inhibitory Concentration (MIC) SA 447 [10]
CCCCCCN[C@H]1C(=O)N[C@@H](CC(N)=O)C(=O)N[C@H]2C(=O)N[C@H]3C(=O)N[C@H](C(=O)N[C@H](C(=O)O)c4cc(O)cc(O)c4-c4cc3ccc4O)[C@H](O[C@H]3C[C@](C)(N)[C@@H](O)[C@H](C)O3)c3ccc(c(Cl)c3)Oc3cc2cc(c3O[C@@H]2O[C@H](CO)[C@@H](O)[C@H](O)[C@H]2O[C@H]2C[C@](C)(NCc3ccc(-c4ccccc4)cc3)[C@@H](O)[C@H](C)O2)Oc2ccc(cc2Cl)[C@H]1O [Example 11, N^1 -n-HEXYL-N^DISACC -(p-PHENYLBENZYL)-DESLEUCYL-A82846B]	1	27	1	0.5	2	0.125	0.125	11	1	0.5
CSc1ccc(CN[C@H]2C(=O)N[C@@H](CC(N)=O)C(=O)N[C@H]3C(=O)N[C@H]4C(=O)N[C@H](C(=O)N[C@H](C(=O)O)c5cc(O)cc(O)c5-c5cc4ccc5O)[C@H](O[C@H]4C[C@](C)(N)[C@@H](O)[C@H](C)O4)c4ccc(c(Cl)c4)Oc4cc3cc(c4O[C@@H]3O[C@H](CO)[C@@H](O)[C@H](O)[C@H]3O[C@H]3C[C@](C)(N)[C@@H](O)[C@H](C)O3)Oc3ccc(cc3Cl)[C@H]2O)cc1 [Example 24, N^1 -(p-(METHYLTHIO)-BENZYL)DESLEUCYL-A82846B]	64	> 128	16	32	32	8	8	> 128	32	32
C[C@@H]1O[C@@H](O[C@@H]2c3ccc(c(Cl)c3)Oc3cc4cc(c3O[C@@H]3O[C@H](CO)[C@@H](O)[C@H](O)[C@H]3O[C@H]3C[C@](C)(NCc5ccc(-c6ccccc6)cc5)[C@@H](O)[C@H](C)O3)Oc3ccc(cc3Cl)[C@@H](O)[C@@H](NCc3ccc(-c5cc(C(F)(F)F)cc(C(F)(F)F)c5)cc3)C(=O)N[C@@H](CC(N)=O)C(=O)N[C@H]4C(=O)N[C@H]3C(=O)N[C@@H]2C(=O)N[C@H](C(=O)O)c2cc(O)cc(O)c2-c2cc3ccc2O)C[C@](C)(N)[C@H]1O [Example 26, N^1 -(p-(3,5-BIS-(TRIFLUOROMETHYL)-PHENYL)BENZYL)-N^DISACC -(p-PHENYLBENZYL)-DESLEUCYL-A82846B]	4	5.7	4	4	2	≤ .06	0.25	6.1	8	4
CCCCCCN[C@H]1C(=O)N[C@@H](CC(N)=O)C(=O)N[C@H]2C(=O)N[C@H]3C(=O)N[C@H](C(=O)N[C@H](C(=O)O)c4cc(O)cc(O)c4-c4cc3ccc4O)[C@H](O[C@H]3C[C@](C)(N)[C@@H](O)[C@H](C)O3)c3ccc(c(Cl)c3)Oc3cc2cc(c3O[C@@H]2O[C@H](CO)[C@@H](O)[C@H](O)[C@H]2O[C@H]2C[C@](C)(N)[C@@H](O)[C@H](C)O2)Oc2ccc(cc2Cl)[C@H]1O [Example 10, N^1 -n-HEXYLDESLEUCYL-A82846B]	64	> 128	16	32	64	32	16	> 128	32	32
C[C@@H]1O[C@@H](O[C@@H]2c3ccc(c(Cl)c3)Oc3cc4cc(c3O[C@@H]3O[C@H](CO)[C@@H](O)[C@H](O)[C@H]3O[C@H]3C[C@](C)(NCc5ccc(-c6ccc(Cl)cc6)cc5)[C@@H](O)[C@H](C)O3)Oc3ccc(cc3Cl)[C@@H](O)[C@@H](NCc3ccc(-c5cc(C(F)(F)F)cc(C(F)(F)F)c5)cc3)C(=O)N[C@@H](CC(N)=O)C(=O)N[C@H]4C(=O)N[C@H]3C(=O)N[C@@H]2C(=O)N[C@H](C(=O)O)c2cc(O)cc(O)c2-c2cc3ccc2O)C[C@](C)(N)[C@H]1O [Example 27, N^1 -(p-(3,5-BIS-(TRIFLUOROMETHYL)-PHENYL)BENZYL)-N^DISACC -(p-(p-CHLOROPHENYL)BENZYL-DESLEUCYL-A82846B]	32	9.5	32	8	8	32	64	6.1	64	32
CSc1ccc(CN[C@H]2C(=O)N[C@@H](CC(N)=O)C(=O)N[C@H]3C(=O)N[C@H]4C(=O)N[C@H](C(=O)N[C@H](C(=O)O)c5cc(O)cc(O)c5-c5cc4ccc5O)[C@H](O[C@H]4C[C@](C)(N)[C@@H](O)[C@H](C)O4)c4ccc(c(Cl)c4)Oc4cc3cc(c4O[C@@H]3O[C@H](CO)[C@@H](O)[C@H](O)[C@H]3O[C@H]3C[C@](C)(NCc4ccc(SC)cc4)[C@@H](O)[C@H](C)O3)Oc3ccc(cc3Cl)[C@H]2O)cc1 [Example 25, N^1,N^DISACC -BIS(p-(METHYLTHIO)-BENZYL)DESLEUCYL-A82846B]	8	6.7	4	8	4	1	4	2.6	8	4
C[C@@H]1O[C@@H](O[C@H]2[C@H](Oc3c4cc5cc3Oc3ccc(cc3Cl)[C@@H](O[C@H]3C[C@](C)(NCc6ccccc6)[C@@H](O)[C@H](C)O3)[C@@H]3NC(=O)[C@H](NC(=O)[C@@H]5NC(=O)[C@H](CC(N)=O)NC(=O)[C@H](NCc5ccccc5)[C@H](O)c5ccc(c(Cl)c5)O4)c4ccc(O)c(c4)-c4c(O)cc(O)cc4[C@@H](C(=O)O)NC3=O)O[C@H](CO)[C@@H](O)[C@@H]2O)C[C@](C)(NCc2ccc(-c3ccccc3)cc2)[C@H]1O [Example 6, N^1,N^MONOSACC -DIBENZYL-N^DISACC -(p-PHENYLBENZYL)-DESLEUCYL-A82846B]	1	16	2	0.5	0.5	0.5	0.125	6.1	2	2
